Tested on: Human patients with short bowel syndrome
Test: Example 1: kidney diagnostic biomarkers (urea nitrogen, creatinine, GFR) in short bowel syndrome patients, every four weeks for 24 weeks
Type: in vivo
Experimental: Human patients with short bowel syndrome were divided into three groups: a control group (16 total individuals) to receive placebo, an experimental group (35 total individuals) to receive teduglutide at 0.05 mg/kg/day throughout the study, and an experimental group (32 total individuals) to receive teduglutide at 0.1 mg/kg/day throughout the study. Patients were treated by subcutaneous injection of placebo or the appropriate dose of teduglutide. As individuals with short bowel syndrome are likely to experience associated liver and kidney disease, known biomarkers of liver and kidney function were monitored every four weeks, for 24 weeks. The liver biomarkers tested included total bilirubin, ALT and AST and ALP. The kidney biomarkers tested included urea nitrogen, creatinine and GFR. Before administration of placebo or teduglutide, diagnostic biomarker levels were tested to establish a baseline for each individual.
To visualize the effect of GLP-2 on the levels of the diagnostic biomarkers, the average change from baseline was calculated for the placebo and teduglutide treated groups for each visit after a baseline was established. The average change from baseline of each group is depicted in FIGS. […]. The numerical figures for each diaanostic biomarker at each time point are depicted in Table 1.
The raw data for this sorting is reproduced in Table 2 below.

[1] = Week 12, range >5%, teduglutide 0.1 mg/kg/day
[2] = Week 12, range −5%<= and <=5%, teduglutide 0.05 mg/kg/day
[3] = Week 12, range −5%<= and <=5%, teduglutide 0.1 mg/kg/day
[4] = Week 16, range <−5%, teduglutide 0.05 mg/kg/day
[5] = Week 16, range <−5%, teduglutide 0.1 mg/kg/day
[6] = Week 16, range >5%, teduglutide 0.05 mg/kg/day
[7] = Week 16, range >5%, teduglutide 0.1 mg/kg/day
[8] = Week 16, range −5%<= and <=5%, teduglutide 0.05 mg/kg/day
[9] = Week 16, range −5%<= and <=5%, teduglutide 0.1 mg/kg/day
[10] = Week 20, range <−5%, teduglutide 0.05 mg/kg/day
[11] = Week 20, range <−5%, teduglutide 0.1 mg/kg/day
[12] = Week 20, range >5%, teduglutide 0.05 mg/kg/day
[13] = Week 20, range >5%, teduglutide 0.1 mg/kg/day
[14] = Week 20, range −5%<= and <=5%, teduglutide 0.05 mg/kg/day
[15] = Week 20, range −5%<= and <=5%, teduglutide 0.1 mg/kg/day
[16] = Week 24, range <−5%, teduglutide 0.05 mg/kg/day
[17] = Week 24, range <−5%, teduglutide 0.1 mg/kg/day
[18] = Week 24, range >5%, teduglutide 0.05 mg/kg/day
[19] = Week 24, range >5%, teduglutide 0.1 mg/kg/day
[20] = Week 24, range −5%<= and <=5%, teduglutide 0.05 mg/kg/day
[21] = Week 24, range −5%<= and <=5%, teduglutide 0.1 mg/kg/day

## CC[C@H](C)[C@H](NC(=O)[C@H](Cc1ccccc1)NC(=O)[C@H](CC(=O)O)NC(=O)[C@H](CCCNC(=N)N)NC(=O)[C@H](C)NC(=O)[C@H](C)NC(=O)[C@H](CC(C)C)NC(=O)[C@H](CC(N)=O)NC(=O)[C@H](CC(=O)O)NC(=O)[C@H](CC(C)C)NC(=O)[C@@H](NC(=O)[C@@H](NC(=O)[C@H](CC(N)=O)NC(=O)[C@H](CCSC)NC(=O)[C@H](CCC(=O)O)NC(=O)[C@H](CC(=O)O)NC(=O)[C@H](CO)NC(=O)[C@H](Cc1ccccc1)NC(=O)[C@H](CO)NC(=O)CNC(=O)[C@H](CC(=O)O)NC(=O)CNC(=O)[C@@H](N)Cc1c[nH]cn1)[C@@H](C)O)[C@@H](C)CC)C(=O)N[C@@H](CC(N)=O)C(=O)N[C@@H](Cc1c[nH]c2ccccc12)C(=O)N[C@@H](CC(C)C)C(=O)N[C@H](C(=O)N[C@@H](CCC(N)=O)C(=O)N[C@H](C(=O)N[C@@H](CCCCN)C(=O)N[C@H](C(=O)N[C@H](C(=O)N[C@@H](CC(=O)O)C(=O)O)[C@@H](C)O)[C@@H](C)CC)[C@@H](C)O)[C@@H](C)CC [teduglutide]
[1]
  CREATININE (RATE BLANKED) change from baseline: patients in range, n(%): 17(53.1%)
  GFR change from baseline: patients in range, n(%): 9(28.1%)
  UREA NITROGEN change from baseline: patients in range, n(%): 14(43.8%)
[2]
  CREATININE (RATE BLANKED) change from baseline: patients in range, n(%): 4(11.4%)
  GFR change from baseline: patients in range, n(%): 5(14.3%)
  UREA NITROGEN change from baseline: patients in range, n(%): 4(11.4%)
[3]
  CREATININE (RATE BLANKED) change from baseline: patients in range, n(%): 4(12.5%)
  GFR change from baseline: patients in range, n(%): 10(31.3%)
  UREA NITROGEN change from baseline: patients in range, n(%): 3(9.4%)
[4]
  CREATININE (RATE BLANKED) change from baseline: patients in range, n(%): 8(22.9%)
  GFR change from baseline: patients in range, n(%): 7(20.0%)
  UREA NITROGEN change from baseline: patients in range, n(%): 12(34.3%)
[5]
  CREATININE (RATE BLANKED) change from baseline: patients in range, n(%): 10(31.3%)
  GFR change from baseline: patients in range, n(%): 12(37.5%)
  UREA NITROGEN change from baseline: patients in range, n(%): 9(28.1%)
[6]
  CREATININE (RATE BLANKED) change from baseline: patients in range, n(%): 8(22.9%)
  GFR change from baseline: patients in range, n(%): 11(31.4%)
  UREA NITROGEN change from baseline: patients in range, n(%): 10(28.6%)
[7]
  CREATININE (RATE BLANKED) change from baseline: patients in range, n(%): 12(37.5%)
  GFR change from baseline: patients in range, n(%): 12(37.5%)
  UREA NITROGEN change from baseline: patients in range, n(%): 9(28.1%)
[8]
  CREATININE (RATE BLANKED) change from baseline: patients in range, n(%): 12(34.3%)
  GFR change from baseline: patients in range, n(%): 10(28.6%)
  UREA NITROGEN change from baseline: patients in range, n(%): 6(17.1%)
[9]
  CREATININE (RATE BLANKED) change from baseline: patients in range, n(%): 8(25.0%)
  GFR change from baseline: patients in range, n(%): 6(18.8%)
  UREA NITROGEN change from baseline: patients in range, n(%): 12(37.5%)
[10]
  CREATININE (RATE BLANKED) change from baseline: patients in range, n(%): 9(25.7%)
  GFR change from baseline: patients in range, n(%): 10(28.6%)
  UREA NITROGEN change from baseline: patients in range, n(%): 13(37.1%)
[11]
  CREATININE (RATE BLANKED) change from baseline: patients in range, n(%): 7(21.9%)
  GFR change from baseline: patients in range, n(%): 11(34.4%)
  UREA NITROGEN change from baseline: patients in range, n(%): 12(37.5%)
[12]
  CREATININE (RATE BLANKED) change from baseline: patients in range, n(%): 10(28.6%)
  GFR change from baseline: patients in range, n(%): 10(28.6%)
  UREA NITROGEN change from baseline: patients in range, n(%): 7(20.0%)
[13]
  CREATININE (RATE BLANKED) change from baseline: patients in range, n(%): 13(40.6%)
  GFR change from baseline: patients in range, n(%): 8(25.0%)
  UREA NITROGEN change from baseline: patients in range, n(%): 11(34.4%)
[14]
  CREATININE (RATE BLANKED) change from baseline: patients in range, n(%): 8(22.9%)
  GFR change from baseline: patients in range, n(%): 7(20.0%)
  UREA NITROGEN change from baseline: patients in range, n(%): 7(20.0%)
[15]
  CREATININE (RATE BLANKED) change from baseline: patients in range, n(%): 9(28.1%)
  GFR change from baseline: patients in range, n(%): 10(31.3%)
  UREA NITROGEN change from baseline: patients in range, n(%): 6(18.8%)
[16]
  CREATININE (RATE BLANKED) change from baseline: patients in range, n(%): 8(22.9%)
  GFR change from baseline: patients in range, n(%): 8(22.9%)
[17]
  CREATININE (RATE BLANKED) change from baseline: patients in range, n(%): 11(34.4%)
  GFR change from baseline: patients in range, n(%): 6(18.8%)
  UREA NITROGEN change from baseline: patients in range, n(%): 14(43.8%)
[18]
  CREATININE (RATE BLANKED) change from baseline: patients in range, n(%): 9(25.7%)
  GFR change from baseline: patients in range, n(%): 10(28.6%)
  UREA NITROGEN change from baseline: patients in range, n(%): 7(20.0%)
[19]
  CREATININE (RATE BLANKED) change from baseline: patients in range, n(%): 9(28.1%)
  GFR change from baseline: patients in range, n(%): 14(43.8%)
  UREA NITROGEN change from baseline: patients in range, n(%): 13(40.6%)
[20]
  CREATININE (RATE BLANKED) change from baseline: patients in range, n(%): 9(25.7%)
  GFR change from baseline: patients in range, n(%): 8(22.9%)
  UREA NITROGEN change from baseline: patients in range, n(%): 2(5.7%)
[21]
  CREATININE (RATE BLANKED) change from baseline: patients in range, n(%): 9(28.1%)
  GFR change from baseline: patients in range, n(%): 9(28.1%)
  UREA NITROGEN change from baseline: patients in range, n(%): 2(6.3%)
Both groups receiving teduglutide
  percent of the group experiencing a decrease in GFR greater than 5% versus placebo: always less than the percent of the group receiving placebo
Groups receiving teduglutide
  creatinine levels, average change versus baseline (FIG. 9): remained stable or decreased slightly
